Source: patent US12612403B2, “Nitrogen-containing heterocyclic derivative inhibitor, and preparation method therefor and use thereof” (SHANGHAI HANSOH BIOMEDICAL CO., LTD., priority 2024, dated 2026)

Legend:
[1] = test system: PCSK9 secreted by HepG2 cells; assay: Effect on the concentration of PCSK9 secreted by HepG2 cells (ELISA); format: cell-based; conditions: Homo sapiens, 48 hours, PCSK9 in culture medium by ELISA
Method: 1. Experimental objective: To detect the inhibitory effect of the compounds on PCSK9.
2. Experimental method: • 1) HepG2 cell strain was cultured in the complete culture medium at 37° C., 5% CO2 to 70-90% confluence. • 2) The cells were digested and resuspended in the experimental culture medium, inoculated at 25,000 cells/well/200 μL in a 96-well cell culture plate, and cultured at 37° C. and 5% CO2 for 20-24 hours. • 3) The culture medium was removed from the cell culture plate, and the cell culture plate was washed once by adding 200 ul of the experimental culture medium to each well. • 4) Preparation of positive control compound and compound to be tested: the positive control compound and the compound to be tested were diluted on the compound plate. • 5) The diluted compound was added to the cell culture plate at 250 μL per well and incubated at 37° C. and 5% CO2 for 48 hours. • 6) The cell culture medium was collected at 200 μL per well and cryopreserved at −80° C. for later use. • 7) A sample of the cell culture medium was taken from the −80° C. cryopreservation condition, dissolved, vortexed, and centrifuged for later use. • 8) Preparation of standard curve: corresponding volumes of Dilution buffer were successively added to respective standard tubes, and in the order of the concentrations of 10, 5, 2.5, 1.25, 0.625, 0.313, 0.16, 0 ng/mL, the standard was diluted in series by taking the corresponding volume from the original tube or the last concentration tube. • 9) Preparation of washing liquid: 10x Wash buffer was diluted into 1x with Milli-Q for later use. • 10) According to the standard curve wells and sample wells set according to a plate map, 100 μL/well of the corresponding standards and culture medium samples were added to the wells, with 2 replicate wells. A self-adhesive seal was applied, the plate was placed on a plate shaker at room temperature, gently shaken, uniformly mixed, and incubated for 1 hour. • 11) The plate was placed on the plate washer, the washing liquid was set to 350 μL per well, and the plate was washed 4 times repeatedly. • 12) 100 μL/well of an HRP-conjugated detection antibody was added, a self-adhesive seal was applied, and the plate was placed on the plate shaker, well mixed uniformly, and incubated for 1 hour. • 13) The plate was placed on the plate washer, the washing liquid was set to 350 μL per well, and the plate was washed 4 times repeatedly. • 14) 100 μL/well of Substrate reagent was added, and the plate was placed in the dark, applied with a self-adhesive seal, placed on the plate shaker, well mixed uniformly, and incubated for 10-20 minutes. • 15) 100 μL of Stop solution (1N H2SO4) was added to each well and mixed uniformly. • 16) The optical density (OD) value in each well was measured in sequence at a wavelength of 450 nm by the microplate reader. Detection was carried out within 30 min after the reaction was stopped.
3. Experimental data processing method: After the OD values were read by the microplate reader, the OD value of the 0-concentration standard in the standard group was subtracted from the OD values of the standards, control group, and samples to obtain the actual OD values for these wells. A standard curve was plotted with Graphpad and the concentration of the sample was calculated. If the dilution was performed during the sample detection, the calculated sample concentration was necessarily multiplied by the corresponding dilution ratio in the final calculation, which was the actual concentration of the sample. Inhibition rate=(actual concentration in control−actual concentration in sample)/actual concentration in control*100. According to the inhibition rates corresponding to the different concentrations, IC50 was derived by Graphpad.

[2] = Pharmacokinetic determination in mice (PO 5 mg/kg, IV 1 mg/kg); format: in vivo, C57BL/6J mice; conditions: male, C57BL/6J, mouse, plasma, C57 mice, PO administration, 5 mpk; for AUC(0-inf): read-out: Area under the curve AUC0-∞; for half-life: read-out: Half-life t1/2 (converted); for MRT: read-out: Mean residence time MRT; for Cmax: read-out: Plasma concentration Cmax; for Tmax: read-out: Time to peak tmax
Method: 1. Experimental objective: C57BL/6J mice were used as test animals to study the pharmacokinetic behavior of the compounds of the present disclosure in mice (plasma) after oral and intravenous administration.
2.2 Test animals: C57 mice, male, purchased from Shanghai Bk Lab Animal Co., Ltd., with animal production license number (SCXK (Shanghai) 2013-0006 N0.311620400001794).
2.3 Drug preparation: Preparation of oral drug: 10% Solutol HS15
10 g of Solutol HS15 solid was weighed, dissolved in 90 mL of pure water, uniformly mixed, stirred, and ultrasonically treated to form a clear solution. The compound of the present disclosure was weighed and dissolved in this solution, uniformly shaken, and ultrasonically treated for 15 minutes to obtain a colorless clear solution with a concentration of 0.5 mg/mL. Preparation of intravenous drug: 5% DMSO+10% Solutol HS15+85% PBS, the compound of the present disclosure was weighed, 5% DMSO was first added on the basis of the proportion relative to the total volume of administration, and the mixture was vortexed and ultrasonically treated for 2 min until it was completely dissolved; 10% of Solutol HS15 was then added, and the mixture was vortexed and ultrasonically treated for 2 min until it was completely dissolved; and finally, 85% of PBS was added, and the mixture was vortexed, ultrasonically treated for 5 min, and filtered through a 0.22 um filter membrane to obtain a colorless and transparent clear solution with a concentration of 0.2 mg/mL.
2.4 Administration: 3 male C57 mice were fasted overnight and then respectively administered PO at a dose of 5 mg/kg and a volume of 10 mL/kg. 3 male C57 mice were fasted overnight and then respectively administered IV at a dose of 1 mg/kg and a volume of 5 mL/kg.
2.5 Sample collection: Before and after administration of mice, 0.04 mL of blood was collected from the orbit at 0.083 (iv), 0.25, 0.5, 1, 2, 4, 8, and 24 hours, and placed in EDTA-K2 test tubes, which was centrifuged at 6000 rpm at 4° C. for 6 min to separate plasma which was stored at −80° C.; and the […] were fed 4 h after administration.
2.6 Determination results: The final determination results were obtained by using an LCMS/MS method.
3. Experimental results: The main pharmacokinetic parameters were calculated using WinNonlin 6.1.

[3] = molecular target: T1, PCSK9 protein (Homo sapiens, UniProt Q8NBP7); assay: Binding ability to PCSK9 protein (HTRF); conditions: PCSK9-His, Alexa Fluor 647 probe compound
T1 construct: purchased Sino biology (Sino Biological) 29698-H08H
Method: 1. Experimental objective: To detect the action of compounds to bind PCSK9 protein by an HTRF method.
3. Experimental data processing method: Four-parameter log(inhibitor) vs. response—Variable slope (four parameters) in XLit was used to perform non-linear fitting of the compound concentration and the corresponding inhibition rate, and IC50 was calculated.

T1 sequence (Q8NBP7 153-692): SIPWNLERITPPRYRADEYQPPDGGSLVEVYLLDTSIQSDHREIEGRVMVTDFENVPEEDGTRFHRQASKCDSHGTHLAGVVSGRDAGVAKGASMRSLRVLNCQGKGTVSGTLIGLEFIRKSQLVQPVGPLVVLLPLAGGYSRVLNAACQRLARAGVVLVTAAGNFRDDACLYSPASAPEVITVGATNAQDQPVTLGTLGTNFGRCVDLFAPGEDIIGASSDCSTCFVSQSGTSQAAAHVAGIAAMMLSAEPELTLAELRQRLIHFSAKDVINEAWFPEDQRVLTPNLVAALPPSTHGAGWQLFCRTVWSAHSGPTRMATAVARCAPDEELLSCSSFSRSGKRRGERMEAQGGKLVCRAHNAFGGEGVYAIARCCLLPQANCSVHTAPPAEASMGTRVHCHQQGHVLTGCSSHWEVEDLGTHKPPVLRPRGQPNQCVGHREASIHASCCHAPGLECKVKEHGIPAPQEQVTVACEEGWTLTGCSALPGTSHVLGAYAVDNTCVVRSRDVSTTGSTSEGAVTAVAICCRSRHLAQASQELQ

| Structure (SMILES) | IC50 [1] [µM] | AUC(0-inf) [2] [ng·h/mL] | half-life [2] [h] | MRT [2] [h] | Cmax [2] [ng/mL] | Tmax [2] [h] | IC50 [3] [µM] |
| --- | --- | --- | --- | --- | --- | --- | --- |
| N#Cc1cnc2c(c1)C(=O)N(c1ccc(N[C@H]3CC[C@H](Nc4nc5cc(C(F)(F)F)ccn5n4)C3)nc1)C2 [Example 65, 5-carbonyl-6-(6-(((1S,3S)-3-((7-(trifluoromethyl)-[1,2,4]triazolo[1,5-a]pyridin-2-yl)amino)cyclopentyl)amino)pyridin-3-yl)-6,7-dihydro-5H-pyrrolo[3,4-b]pyridine-3-carbonitrile] | 12.8 | 70000 | 4 | 5.8 | 7870 | 4 | 0.0139 |
| Cc1cc2c(cn1)C(=O)N(c1ccc(N[C@H]3CC[C@H](Nc4nc5cc(C(F)(F)F)ccn5n4)C3)nc1)C2 [Example 89, 6-methyl-2-(6-(((1S,3S)-3-((7-(trifluoromethyl)-[1,2,4]triazolo[1,5-a]pyridin-2-yl)amino)cyclopentyl)amino)pyridin-3-yl)-1,2-dihydro-3H-pyrrolo[3,4-c]pyridin-3-one] | 4 | 34300 | 2.7 | 3.1 | 10300 | 0.25 | 0.0105 |
| Cc1ccc2c(n1)C(=O)N(c1ccc(N[C@H]3CC[C@H](Nc4nc5cc(C(F)(F)F)ccn5n4)C3)nc1)C2 [Example 91, 2-methyl-6-(6-(((1S,3S)-3-((7-(trifluoromethyl)-[1,2,4]triazolo[1,5-a]pyridin-2-yl)amino)cyclopentyl)amino)pyridin-3-yl)-5,6-dihydro-7H-pyrrolo[3,4-b]pyridin-7-one] | 12.9 |  |  |  |  |  | 0.0104 |
| Cc1cnc2c(c1)CN(c1ccc(N[C@H]3CC[C@H](Nc4nc5cc(C(F)(F)F)ccn5n4)C3)nc1)C2=O [Example 94] | 20.5 |  |  |  |  |  | 0.0095 |
| Cc1cn(-c2ccc(N[C@H]3CC[C@H](Nc4nc5cc(C(F)(F)F)ccn5n4)C3)nc2)c(=O)nc1N [Example 109] | 19.6 |  |  |  |  |  | 0.0161 |
| Cc1cn(-c2ccc(N[C@H]3CC[C@H](Nc4nc5cc(C(F)(F)F)ccn5n4)C3)nc2)c(=O)nc1O [Example 111] | 11.2 |  |  |  |  |  | 0.0162 |
| [2H]C1([2H])c2ncccc2C(=O)N1c1ccc(N[C@H]2CC[C@H](Nc3nc4cc(C(F)(F)F)ccn4n3)C2)nc1 [Example 114] | 14.7 | 7230 | 3.1 | 3 | 2350 | 0.5 | 0.0089 |
| Cc1cnc2c(c1)C(=O)N(c1ccc(N[C@H]3CC[C@H](Nc4nc5cc(C(F)(F)F)ccn5n4)C3)nc1)C2 [Example 115] | 2.6 |  |  |  |  |  | 0.0099 |
| O=C1c2cc(Cl)cnc2CN1c1ccc(N[C@H]2CC[C@H](Nc3nc4cc(C(F)(F)F)ccn4n3)C2)nc1 [Example 116] | 0.5 |  |  |  |  |  | 0.0164 |
| O=C1c2ccc(Cl)cc2CN1c1ccc(N[C@H]2CC[C@H](Nc3nc4cc(C(F)(F)F)ccn4n3)C2)nc1 [Example 117] | 0.4 |  |  |  |  |  | 0.0183 |
| N#Cc1cnc2c(c1)C(=O)N(c1ccc(N[C@H]3CC[C@H](Nc4nc5cc(OC(F)F)ccn5n4)C3)nc1)C2 [Example 123] | 5.2 | 62200 | 2.4 | 4.3 | 9920 | 2 | 0.0115 |
| N#Cc1ccc2c(n1)CN(c1ccc(N[C@H]3CC[C@H](Nc4nc5cc(OC(F)F)ccn5n4)C3)nc1)C2=O [Example 132] | 6.5 | 30600 | 2.9 | 3 | 8570 | 0.5 | 0.01 |
| O=C1c2ccc(C(F)(F)F)nc2CN1c1ccc(N[C@H]2CC[C@H](Nc3nc4cc(OC(F)F)ccn4n3)C2)nc1 [Example 133] | 0.4 | 86800 | 5 | 5.8 | 11000 | 2 | 0.0078 |
| O=C1c2ncc(F)cc2CN1c1cnc(N[C@H]2CC[C@H](Nc3nc4cc(C(F)(F)F)ccn4n3)C2)c(F)c1 [Example 145] | 2.9 | 22600 | 3.3 | 3.1 | 6310 | 1 | 0.0106 |
| N#Cc1cnc2c(c1)C(=O)N(c1cnc(N[C@H]3CC[C@H](Nc4nc5cc(C(F)(F)F)ccn5n4)C3)c(F)c1)C2 [Example 147] | 0.3 |  |  |  |  |  | 0.0088 |
| N#Cc1cnc2c(c1)C(=O)N(c1cnc(N[C@H]3CC[C@H](Nc4nc5cc(OC(F)F)ccn5n4)C3)c(F)c1)C2 [Example 153] | 0.8 |  |  |  |  |  | 0.0122 |
| N#Cc1ccnc2c1C(=O)N(c1ccc(N[C@H]3CC[C@H](Nc4nc5cc(C(F)(F)F)ccn5n4)C3)nc1)C2 [Example 163] | 10.8 |  |  |  |  |  | 0.0063 |
